# Data as given in patent US9822069B2, “Urea derivative or pharmacologically acceptable salt thereof” (KYORIN PHARMACEUTICAL CO. LTD., priority 2013, dated 2017).
# Molecular target: T1, human FPRL1 (Homo sapiens, UniProt P25090)
# T1 construct: expressed in transfected cells; host or cells: HEK293 (JCRB9068, NIBIO), transient transfection with pCMV-script vectors using Lipofectamine 2000
# T1 sequence (P25090 1-351): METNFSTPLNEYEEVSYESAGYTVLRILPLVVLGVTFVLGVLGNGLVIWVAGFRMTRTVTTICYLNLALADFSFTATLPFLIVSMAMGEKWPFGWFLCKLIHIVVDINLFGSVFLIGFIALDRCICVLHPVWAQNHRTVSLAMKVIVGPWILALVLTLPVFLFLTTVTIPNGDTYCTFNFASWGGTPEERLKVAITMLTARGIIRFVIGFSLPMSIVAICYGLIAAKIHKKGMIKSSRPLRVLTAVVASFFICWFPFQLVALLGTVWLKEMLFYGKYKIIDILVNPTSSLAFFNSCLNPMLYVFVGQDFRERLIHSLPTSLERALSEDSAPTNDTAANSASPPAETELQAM
# Assay: Measurement test of agonist activity on human FPRL1 (test of calcium mobilization in cell, HEK293 with human FPRL1 and Gα15 expression vectors)
# Assay type: cell-based
# Conditions: calcium mobilization in HEK293 cells with human FPRL1 and Gα15 expression vectors
# From the text: Measurement Test of Agonist Activity on Human FPRL1
# (1-1) Construction of Human FPRL1 Expression Vector
# Human FPRL (SEQ ID NO: 3) was amplified in a PCR reaction from cDNA derived from a monocytic leukemia cell line THP-1 (TIB-202, ATCC) as a template using a forward primer shown in SEQ ID NO: 1, a reverse primer shown in SEQ ID NO: 2, and KOD-plus-ver. 2 (KOD-211, TOYOBO CO., LTD.). The amplified PCR product and pCMV-script vector (212220, STRATAGENE) were digested with Hind III (1060A, Takara Bio Inc.) and XhoI (1094A, Takara Bio Inc.), and the resultant digest was ligated with Ligation high ver. 2 (LGK-201, TOYOBO CO., LTD.). The ligation product was transformed into DH5α (DNA-901, TOYOBO CO., LTD.), cultured on a 100 μg/mL kanamycin-containing LB medium, and purified with HiSpeed Plasmid Maxi Kit (12662, QIAGEN).
# (1-2) Construction of Human Gα15 Expression Vector
# Human Gα15 (SEQ ID NO: 6) was amplified in a PCR reaction from cDNA derived from a myeloid leukemia cell line HL-60 (CCL-240, ATCC) as a template using a forward primer shown in SEQ ID NO: 4, a reverse primer shown in SEQ ID NO: 5, and KOD-plus-ver. 2. The amplified PCR product and pCMV-script vector were digested with Hind III and XhoI, and the resultant digest was ligated with Ligation high ver. 2. The ligation product was transformed into DH5α, cultured on a 100 μg/mL kanamycin-containing LB medium, and purified with HiSpeed Plasmid Maxi Kit.
# (2-1) Method for Culturing and Subculturing HEK293
# HEK293 (JCRB9068, NIBIO) was cultured in an incubator at 5% CO2 and 37° C. using DMEM (11885-092, GIBCO) containing 10% FBS and 1× Penicillin-Streptomycin (15140-122, GIBCO). Subculture was carried out as followings: The cells that reached 80 to 90% confluency were washed with PBS(−), separated using 0.25% Trypsin-EDTA (25200-072, GIBCO), centrifuged, re-suspended in a fresh medium, and then seeded in Collagen Type 1 Coated dish (4020-010, IWAKI) at a split ratio of 1:8 (cultured for 3 days).
# (2-2) Introduction of Human FPRL1 and Gα15 Expression Vectors
# HEK293 that reached 80 to 90% confluency was washed with PBS(−), separated using 0.25% Trypsin-EDTA, centrifuged, and re-suspended in a fresh medium excluding 1× Penicillin-Streptomycin. The cells were inoculated in a Collagen Type 1 coated 6-well plate (4810-010, IWAKI) to 5×10^5 cells/2.5 mL/well and cultured overnight. On the next day, human FPRL1 and Gα15 expression vectors were introduced using Lipofectamine 2000 transfection reagent (11668-019, Life technologies). First, the human FPRL1 and Gα15 expression vectors were diluted with Opti-MEM I Reduced Serum Medium (31985-070, GIBCO) to 2 μg/250 μL/well and Lipofectamine 2000 transfection reagent was diluted with Opti-MEM I Reduced Serum Medium to be 4 μL/250 μL/well. The vectors and reagent were softly diffused, and incubated at room temperature for 5 minutes. The vector solution was mixed with Lipofectamine 2000 transfection reagent in equal amounts. In order to form a composite of the vectors and Lipofectamine 2000 transfection reagent, the mixture was incubated at room temperature for 20 minutes, and added at 500 μL/well to the medium of inoculated cells. The treated cells were cultured for 24 hours, inoculated in Poly-D-Lysine coated 96-well plate (356640, BD Biosciences) at a cell density of 7×10^4 cells/100 μL/well, and cultured for another 24 hours. The resultant cells were used in a measurement test of calcium mobilization in the cells.
# (3) Evaluation of Agonist Activity on Human FPRL1 (Test of Calcium Mobilization in Cell)
# An appropriate amount of each test compound was first weighed, and dissolved to 10^−2 M by addition of dimethyl sulfoxide (DMSO). […]
row,Compound,EC50 [nM]
1,"COc1cc(F)c([C@@H]2CNC(=O)[C@H]2NC(=O)Nc2cccc(F)c2)c(F)c1 (relative stereo) [Example 7-8, (−)-1-[(3S*,4R*)-4-(2,6-difluoro-4-methoxyphenyl)-2-oxopyrrolidin-3-yl]-3-(3-fluorophenyl)urea]",0.95
2,"CCc1ccc(NC(=O)N[C@@H]2C(=O)NC[C@H]2c2c(F)cc(OC)cc2F)cc1 (relative stereo) [Example 7-10, (−)-1-[(3S*,4R*)-4-(2,6-difluoro-4-methoxyphenyl)-2-oxopyrrolidin-3-yl]-3-(4-ethylphenyl)urea]",2.31
3,"COc1cc(F)c([C@@H]2CNC(=O)[C@H]2NC(=O)Nc2cccc(C#N)c2)c(F)c1 (relative stereo) [Example 7-12, (−)-1-(3-cyanophenyl)-3-[(3S*,4R*)-4-(2,6-difluoro-4-methoxyphenyl)-2-oxopyrrolidin-3-yl]urea]",3.9
4,"COc1cnc([C@@H]2CNC(=O)[C@H]2NC(=O)Nc2ccc(Cl)s2)c(F)c1 (relative stereo) [Example 8-2, (−)-1-(5-chlorothiophen-2-yl)-3-[(3S*,4R*)-4-(3-fluoro-5-methoxypyridin-2-yl)-2-oxopyrrolidin-3-yl]urea]",1.6
5,"COc1cc(F)c([C@@H]2CN(CC(=O)O)C(=O)[C@H]2NC(=O)Nc2ccc(F)cc2)c(F)c1 (relative stereo) [Example 16-2, (−)-2-{(3S*,4R*)-4-(2,6-difluoro-4-methoxyphenyl)-3-[3-(4-fluorophenyl)ureido]-2-oxopyrrolidin-1-yl}acetic acid]",0.49
6,"O=C(O)CN1C[C@@H](c2cc3c(cc2F)OCC3)[C@H](NC(=O)Nc2ccc(F)cc2)C1=O (relative stereo) [Example 16-3, (−)-2-{(3S*,4R*)-4-(6-fluoro-2,3-dihydrobenzofuran-5-yl)-3-[3-(4-fluorophenyl)ureido]-2-oxopyrrolidin-1-yl}acetic acid]",0.75
7,COc1cc(F)c([C@@H]2CN(C)C(=O)[C@H]2NC(=O)Nc2ccc(C#N)cc2)c(F)c1 (relative stereo) [Example 24-3],1.1
8,"COc1cc(F)c([C@@H]2CN(C)C(=O)[C@H]2NC(=O)Nc2ccc(Cl)nc2)c(F)c1 (relative stereo) [Example 24-4, (−)-1-(6-chloropyridin-3-yl)-3-[(3S*,4R*)-4-(2,6-difluoro-4-methoxyphenyl)-1-methyl-2-oxopyrrolidin-3-yl]urea]",0.81
9,"COc1cc(F)c([C@@H]2CN(C)C(=O)[C@H]2NC(=O)Nc2cc3ccccc3s2)c(F)c1 (relative stereo) [Example 24-5, (−)-1-(benzo[b]thiophen-2-yl)-3-[(3S*,4R*)-4-(2,6-difluoro-4-methoxyphenyl)-1-methyl-2-oxopyrrolidin-3-yl]urea]",1.6
10,"COc1cc(F)c([C@@H]2CN(CCO)C(=O)[C@H]2NC(=O)Nc2ccccc2)c(F)c1 (relative stereo) [Example 24-6, (−)-1-[(3S*,4R*)-4-(2,6-difluoro-4-methoxyphenyl)-1-(2-hydroxyethyl)-2-oxopyrrolidin-3-yl]-3-phenylurea]",0.4
11,"COc1cc(F)c([C@@H]2CN(CCO)C(=O)[C@H]2NC(=O)Nc2ccc(C)cc2)c(F)c1 (relative stereo) [Example 24-7, (−)-1-[(3S*,4R*)-4-(2,6-difluoro-4-methoxyphenyl)-1-(2-hydroxyethyl)-2-oxopyrrolidin-3-yl]-3-(p-tolyl)urea]",0.69

# The next lines start with the values.
row,EC50 [nM],Compound
1,0.16,"COc1cc(F)c([C@@H]2CNC(=O)[C@H]2NC(=O)Nc2ccc(F)c(F)c2)c(F)c1 (relative stereo) [Example 7-9, (−)-1-[(3S*,4R*)-4-(2,6-difluoro-4-methoxyphenyl)-2-oxopyrrolidin-3-yl]-3-(3,4-difluorophenyl)urea]"
2,0.29,"COc1cc(F)c([C@@H]2CNC(=O)[C@H]2NC(=O)Nc2ccc(Cl)s2)c(F)c1 (relative stereo) [Example 8-1, (−)-1-(5-Chlorothiophen-2-yl)-3-[(3S*,4R*)-4-(2,6-difluoro-4-methoxyphenyl)-2-oxopyrrolidin-3-yl]urea]"
3,0.05,"COc1ccc([C@@H]2CN(C(C)(C)CO)C(=O)[C@H]2NC(=O)Nc2ccc(F)cc2)cc1 (relative stereo) [Example 12-4, (−)-1-(4-fluorophenyl)-3-[(3S*,4R*)-1-(1-hydroxy-2-methylpropan-2-yl)-4-(4-methoxyphenyl)-2-oxopyrrolidin-3-yl]urea]"
4,0.11,"CNC(=O)CN1C[C@@H](c2ccc(OC)cc2)[C@H](NC(=O)Nc2ccc(F)cc2)C1=O (relative stereo) [Example 17-1, (−)-2-{(3S*,4R*)-3-[3-(4-Fluorophenyl)ureido]-4-(4-methoxyphenyl)-2-oxopyrrolidin-1-yl}-N-methylacetamide]"
5,0.07,"CNC(=O)CN1C[C@@H](c2c(F)cc(OC)cc2F)[C@H](NC(=O)Nc2ccc(F)cc2)C1=O (relative stereo) [Example 17-2, (−)-2-{(3S*,4R*)-4-(2,6-difluoro-4-methoxyphenyl)-3-[3-(4-fluorophenyl)ureido]-2-oxopyrrolidin-1-yl}-N-methylacetamide]"
6,0.29,"NC(=O)CN1C[C@@H](c2cc3c(cc2F)OCC3)[C@H](NC(=O)Nc2ccc(F)cc2)C1=O (relative stereo) [Example 17-3, (−)-2-{(3S*,4R*)-4-(6-fluoro-2,3-dihydrobenzofuran-5-yl)-3-[3-(4-fluorophenyl)ureido]-2-oxopyrrolidin-1-yl}acetamide]"
7,0.38,"CC(C)(C(=O)O)N1C[C@@H](c2cc3c(cc2F)OCC3)[C@H](NC(=O)Nc2ccc(F)cc2)C1=O (relative stereo) [Example 22-2, (−)-2-{(3S*,4R*)-4-(6-Fluoro-2,3-dihydrobenzofuran-5-yl)-3-[3-(4-fluorophenyl)ureido]-2-oxopyrrolidin-1-yl}-2-methylpropanoic acid]"
8,0.09,"CNC(=O)C(C)(C)N1C[C@@H](c2ccc(OC)cc2)[C@H](NC(=O)Nc2ccc(F)cc2)C1=O (relative stereo) [Example 23-1, (−)-2-{(3S*,4R*)-3-[3-(4-Fluorophenyl)ureido]-4-(4-methoxyphenyl)-2-oxopyrrolidin-1-yl}-N,2-dimethylpropionamide]"
9,0.09,"COc1cc(F)c([C@@H]2CN(C)C(=O)[C@H]2NC(=O)Nc2ccc(F)cc2)c(F)c1 (relative stereo) [Example 24-1, (−)-1-[(3S*,4R*)-4-(2,6-Difluoro-4-methoxyphenyl)-1-methyl-2-oxopyrrolidin-3-yl]-3-(4-fluorophenyl)urea]"
10,0.39,"COc1cc(F)c([C@@H]2CN(CCO)C(=O)[C@H]2NC(=O)Nc2ccc(C#N)cc2)c(F)c1 (relative stereo) [Example 24-8, (−)-1-(4-cyanophenyl)-3-[(3S*,4R*)-4-(2,6-difluoro-4-methoxyphenyl)-1-(2-hydroxyethyl)-2-oxopyrrolidin-3-yl]urea]"
